In patent US20240166642A1, “INHIBITORS OF MYELOPEROXIDASE” (ASTRAZENECA AB, priority 2022, published 2024):

Experiments:
[1] = molecular target: MPO (purified from HL60 cells) (Homo sapiens (Human), UniProt P05164); assay: MPO activity (IC50), luminol chemiluminescence assay; assay type: biochemical; settings: PBS pH7.4, luminol 100 μM, H2O2 50 μM, chemiluminescence recorded after 15 minutes
Protocol: (§1) The experiments were performed in phosphate-buffered saline (PBS), pH7.4. A 10 mM luminol (A4695, Sigma Aldrich, St Louis, MO, USA) stock was prepared in distilled water and further diluted in PBS to a final concentration of 100 μM. H2O2 was prepared as 1 mM stock in PBS, yielding a final concentration of 50 μM after addition into the assay. The compounds were serially diluted in DMSO in a separate plate as a 100× stock solution, and MPO (purified from HL60 cells) and TPO (produced in insect cells, RSR Ltd, Cardiff, UK), were diluted to yield a final concentration of approximately 14 and 150 ng/mL, generating 5600 and 9300 light counts per seconds (LCPS) upon incubation with luminol.
(§2) The experiment was run by pipetting 2 μL 100× stock solution of the compound and 200 μL diluted enzyme in PBS into wells in a 96-well Optiplate (6005290, Perkin Elmer/Thermo Fischer, Waltham, MS, USA), followed by addition of 10 μL H2O2 containing PBS. Chemiluminescence measurement (Perkin Elmer Wallac Microbeta Trilux 1450-029 (12-detector), Turkuu, Finland) was started directly and recorded after 2, 10 and 15 minutes.

[2] = molecular target: TPO (produced in insect cells, RSR Ltd) (Homo sapiens (Human), UniProt P07202); assay: TPO activity (IC50), luminol chemiluminescence assay; assay type: biochemical; settings: PBS pH7.4, luminol 100 μM, H2O2 50 μM, chemiluminescence recorded after 15 minutes
Protocol: as §1, §2

MPO (purified from HL60 cells), sequence (P05164 49-745): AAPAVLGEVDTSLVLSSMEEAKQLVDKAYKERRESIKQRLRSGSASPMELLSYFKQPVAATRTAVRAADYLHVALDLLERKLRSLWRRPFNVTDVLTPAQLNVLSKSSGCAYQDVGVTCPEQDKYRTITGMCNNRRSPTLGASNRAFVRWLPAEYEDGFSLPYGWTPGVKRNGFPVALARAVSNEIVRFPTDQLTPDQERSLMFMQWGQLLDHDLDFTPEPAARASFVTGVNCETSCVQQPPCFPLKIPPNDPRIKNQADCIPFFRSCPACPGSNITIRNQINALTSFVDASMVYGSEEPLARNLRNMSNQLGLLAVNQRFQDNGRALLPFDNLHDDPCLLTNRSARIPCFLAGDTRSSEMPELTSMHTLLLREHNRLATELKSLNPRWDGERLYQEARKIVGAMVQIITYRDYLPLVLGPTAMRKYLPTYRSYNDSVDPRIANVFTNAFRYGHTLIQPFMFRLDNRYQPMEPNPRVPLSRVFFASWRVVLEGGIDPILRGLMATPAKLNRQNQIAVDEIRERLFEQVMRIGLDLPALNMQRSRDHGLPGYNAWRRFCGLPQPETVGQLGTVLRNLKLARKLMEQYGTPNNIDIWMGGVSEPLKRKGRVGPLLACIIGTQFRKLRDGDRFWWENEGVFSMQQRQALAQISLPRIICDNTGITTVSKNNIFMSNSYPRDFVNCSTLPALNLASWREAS
TPO (produced in insect cells, RSR Ltd), sequence (P07202 19-933): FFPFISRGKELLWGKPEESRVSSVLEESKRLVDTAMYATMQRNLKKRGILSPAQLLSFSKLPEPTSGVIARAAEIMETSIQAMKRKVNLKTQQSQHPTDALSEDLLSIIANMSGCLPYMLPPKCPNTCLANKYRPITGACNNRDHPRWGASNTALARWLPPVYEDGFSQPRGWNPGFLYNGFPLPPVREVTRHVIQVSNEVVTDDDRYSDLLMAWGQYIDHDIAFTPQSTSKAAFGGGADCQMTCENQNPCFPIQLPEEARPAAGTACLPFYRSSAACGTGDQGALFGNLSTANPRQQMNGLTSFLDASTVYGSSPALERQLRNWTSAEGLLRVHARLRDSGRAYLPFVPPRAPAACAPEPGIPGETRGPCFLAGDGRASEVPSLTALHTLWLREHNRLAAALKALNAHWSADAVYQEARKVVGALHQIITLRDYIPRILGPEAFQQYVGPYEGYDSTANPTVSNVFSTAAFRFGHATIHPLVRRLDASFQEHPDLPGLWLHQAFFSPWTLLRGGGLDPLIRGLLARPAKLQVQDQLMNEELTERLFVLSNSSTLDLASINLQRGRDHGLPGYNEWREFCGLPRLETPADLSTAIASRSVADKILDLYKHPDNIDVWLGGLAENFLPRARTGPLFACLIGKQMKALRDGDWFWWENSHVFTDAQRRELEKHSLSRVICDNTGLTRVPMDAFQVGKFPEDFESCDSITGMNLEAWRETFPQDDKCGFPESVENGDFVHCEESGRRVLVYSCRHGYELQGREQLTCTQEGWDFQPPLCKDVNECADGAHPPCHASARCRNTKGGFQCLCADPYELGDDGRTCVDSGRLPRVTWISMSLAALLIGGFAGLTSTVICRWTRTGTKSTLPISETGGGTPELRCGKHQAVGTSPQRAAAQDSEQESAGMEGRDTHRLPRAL

Row | Compound | IC50 [1] | IC50 [2]
1 | O=c1[nH]c(=S)n(Cc2ncccc2[C@H]2C[C@@H](C(F)(F)F)CCN2)c2cc[nH]c12 (racemic) [Example 21, rac-2-Thioxo-1-((3-((2R,4S)-4-(trifluoromethyl)piperidin-2-yl)pyridin-2-yl)methyl)-1,2,3,5-tetrahydro-4H-pyrrolo[3,2-d]pyrimidin-4-one] | 5.7 nM | 540 nM
2 | O=c1[nH]c(=S)n(Cc2ccncc2[C@H]2C[C@@H](C(F)(F)F)CCN2)c2cc[nH]c12 (racemic) [Example 22, rac-2-Thioxo-1-((3-((2R,4S)-4-(trifluoromethyl)piperidin-2-yl)pyridin-4-yl)methyl)-1,2,3,5-tetrahydro-4H-pyrrolo[3,2-d]pyrimidin-4-one] | 11.5 nM | 950 nM
3 | O=c1[nH]c(=S)n(Cc2ccccc2[C@H]2CCCCN2)c2cc[nH]c12 (single isomer, unassigned) [Example 1a] | 12.1 nM | 1010 nM
4 | O=c1[nH]c(=S)n(Cc2ccccc2[C@H]2CCCCN2)c2cc[nH]c12 (single isomer, unassigned) [Example 1b] | 2.1 nM | 850 nM
5 | O=c1[nH]c(=S)n(Cc2ccc(Cl)cc2[C@H]2CCCCN2)c2cc[nH]c12 (single isomer, unassigned) [Example 2a] | 12.2 nM | 1040 nM
6 | O=c1[nH]c(=S)n(Cc2ccc(Cl)cc2[C@H]2CCCCN2)c2cc[nH]c12 (single isomer, unassigned) [Example 2b] | 3.6 nM | 550 nM
7 | O=c1[nH]c(=S)n(Cc2ccc(Cl)cc2[C@H]2CCCN2)c2cc[nH]c12 (single isomer, unassigned) [Example 3a] | 3 nM | 550 nM
8 | O=c1[nH]c(=S)n(Cc2ccc(Cl)cc2[C@H]2CCCN2)c2cc[nH]c12 (single isomer, unassigned) [Example 3b] | 27.5 nM | 700 nM
9 | O=c1[nH]c(=S)n(Cc2ccc(Cl)cc2[C@H]2COCCN2)c2cc[nH]c12 (single isomer, unassigned) [Example 4a] | 18.7 nM | 370 nM
10 | O=c1[nH]c(=S)n(Cc2ccc(Cl)cc2[C@H]2COCCN2)c2cc[nH]c12 (single isomer, unassigned) [Example 4b] | 127 nM | 810 nM
11 | O=c1[nH]c(=S)n(Cc2ccccc2[C@@H]2CCCCCN2)c2cc[nH]c12 (single isomer, unassigned) [Example 6a] | 19.6 nM | 420 nM
12 | O=c1[nH]c(=S)n(Cc2ccccc2[C@@H]2CCCCCN2)c2cc[nH]c12 (single isomer, unassigned) [Example 6b] | 2.8 nM | 300 nM
13 | O=c1[nH]c(=S)n(Cc2ccccc2[C@H]2C[C@@H](C(F)(F)F)CCN2)c2cc[nH]c12 (single isomer, unassigned) [Example 10a] | 6 nM | 1200 nM
14 | O=c1[nH]c(=S)n(Cc2ccccc2[C@H]2C[C@@H](C(F)(F)F)CCN2)c2cc[nH]c12 (single isomer, unassigned) [Example 10b] | 1.5 nM | 430 nM
15 | O=c1[nH]c(=S)n(Cc2ccccc2[C@H]2CNCCO2)c2cc[nH]c12 (single isomer, unassigned) [Example 29] | 15 nM | 540 nM
16 | O=c1[nH]c(=S)n(Cc2ccc(Cl)cc2C2COCCN2)c2nc[nH]c12 (stereo not shown) [Example 5, 3-(4-Chloro-2-(morpholin-3-yl)benzyl)-2-thioxo-1,2,3,7-tetrahydro-6H-purin-6-one] | 194 nM | 1680 nM
17 | O=c1[nH]c(=S)n(Cc2ccc(Cl)cc2[C@H]2CCCCCN2)c2nc[nH]c12 [Example 7, (R)-3-(2-(Azepan-2-yl)-4-chlorobenzyl)-2-thioxo-1,2,3,7-tetrahydro-6H-purin-6-one] | 7.1 nM | 610 nM
18 | O=c1[nH]c(=S)n(Cc2ccccc2[C@@H]2COCCN2)c2cc[nH]c12 [Example 8, (R)-1-(2-(Morpholin-3-yl)benzyl)-2-thioxo-1,2,3,5-tetrahydro-4H-pyrrolo[3,2-d]pyrimidin-4-one] | 67 nM | 930 nM
19 | CN1CCNC(c2ccccc2Cn2c(=S)[nH]c(=O)c3[nH]ccc32)C1 (stereo not shown) [Example 9, 1-(2-(4-Methylpiperazin-2-yl)benzyl)-2-thioxo-1,2,3,5-tetrahydro-4H-pyrrolo[3,2-d]pyrimidin-4-one] | 10.1 nM | 1270 nM
20 | O=c1[nH]c(=S)n(Cc2ccccc2C2CCC(C(F)(F)F)CN2)c2cc[nH]c12 (stereo not shown) [Example 11, 2-Thioxo-1-(2-(5-(trifluoromethyl)piperidin-2-yl)benzyl)-1,2,3,5-tetrahydro-4H-pyrrolo[3,2-d]pyrimidin-4-one] | 13 nM | 540 nM
21 | O=c1[nH]c(=S)n(Cc2ccccc2C2CC(F)(F)CCN2)c2nc[nH]c12 (stereo not shown) [Example 14, 3-(2-(4,4-Difluoropiperidin-2-yl)benzyl)-2-thioxo-1,2,3,7-tetrahydro-6H-purin-6-one] | 7.2 nM | 540 nM
22 | O=c1[nH]c(=S)n(Cc2ccccc2C2CCC(F)CN2)c2nc[nH]c12 (stereo not shown) [Example 15, 3-(2-(5-Fluoropiperidin-2-yl)benzyl)-2-thioxo-1,2,3,7-tetrahydro-6H-purin-6-one] | 16 nM | 540 nM
23 | O=c1[nH]c(=S)n(Cc2cccnc2C2CCCCN2)c2cc[nH]c12 (stereo not shown) [Example 20, 1-((2-(Piperidin-2-yl)pyridin-3-yl)methyl)-2-thioxo-1,2,3,5-tetrahydro-4H-pyrrolo[3,2-d]pyrimidin-4-one] | 46 nM | 2760 nM
24 | O=c1[nH]c(=S)n(Cc2cccc3c2CNCC3)c2cc[nH]c12 [Example 23, 1-((1,2,3,4-Tetrahydroisoquinolin-8-yl)methyl)-2-thioxo-1,2,3,5-tetrahydro-4H-pyrrolo[3,2-d]pyrimidin-4-one] | 10 nM | 380 nM

Results, then the compound that gave them:

Row | IC50 [1] | IC50 [2] | Compound
25 | 27 nM | 670 nM | O=c1[nH]c(=S)n(Cc2ccccc2[C@H]2CC(F)(F)CCN2)c2cc[nH]c12 (single isomer, unassigned) [Example 12a]
26 | 2.7 nM | 320 nM | O=c1[nH]c(=S)n(Cc2ccccc2[C@H]2CC(F)(F)CCN2)c2cc[nH]c12 (single isomer, unassigned) [Example 12b]
27 | 31.4 nM | 1610 nM | O=c1[nH]c(=S)n(Cc2cccnc2[C@H]2C[C@@H](C(F)(F)F)CCN2)c2cc[nH]c12 (single isomer, unassigned) [Example 16a]
28 | 3.9 nM | 780 nM | O=c1[nH]c(=S)n(Cc2cccnc2[C@H]2C[C@@H](C(F)(F)F)CCN2)c2cc[nH]c12 (single isomer, unassigned) [Example 16b]
29 | 56.3 nM | 730 nM | O=c1[nH]c(=S)n(Cc2ccccc2[C@H]2C[C@H](C(F)(F)F)CCN2)c2nc[nH]c12 (single isomer, unassigned) [Example 18a]
30 | 2.7 nM | 410 nM | O=c1[nH]c(=S)n(Cc2ccccc2[C@H]2C[C@H](C(F)(F)F)CCN2)c2nc[nH]c12 (single isomer, unassigned) [Example 18b]
31 | 11.9 nM | 1760 nM | O=c1[nH]c(=S)n(Cc2ccccc2[C@H]2C[C@@H](C(F)F)CCN2)c2cc[nH]c12 (single isomer, unassigned) [Example 19a]
32 | 1.3 nM | 570 nM | O=c1[nH]c(=S)n(Cc2ccccc2[C@H]2C[C@@H](C(F)F)CCN2)c2cc[nH]c12 (single isomer, unassigned) [Example 19b]
33 | 30 nM | 1700 nM | O=c1[nH]c(=S)n(Cc2cccnc2[C@H]2C[C@H](C(F)(F)F)CCN2)c2cc[nH]c12 (single isomer, unassigned) [Example 31a]
34 | 48 nM | 2900 nM | O=c1[nH]c(=S)n(Cc2cccnc2[C@H]2C[C@H](C(F)(F)F)CCN2)c2cc[nH]c12 (single isomer, unassigned) [Example 31b]
35 | 16.5 nM | 760 nM | O=c1[nH]c(=S)n(Cc2ccccc2[C@H]2C[C@H](C(F)(F)F)CCN2)c2cc[nH]c12 (stereo in doubt) [Example 17a, rel-2-Thioxo-1-(2-((2R,4R)-4-(trifluoromethyl)piperidin-2-yl)benzyl)-1,2,3,5-tetrahydro-4H-pyrrolo[3,2-d]pyrimidin-4-one]
36 | 3.4 nM | 630 nM | O=c1[nH]c(=S)n(Cc2ccccc2[C@@H]2C[C@@H](C(F)(F)F)CCN2)c2cc[nH]c12 (stereo in doubt) [Example 17b, rac-2-thioxo-1-(2-((2R,4R)-4-(trifluoromethyl)piperidin-2-yl)benzyl)-1,2,3,5-tetrahydro-4H-pyrrolo[3,2-d]pyrimidin-4-one]
37 | 16 nM | 1050 nM | O=c1[nH]c(=S)n(Cc2ccccc2[C@H]2C[C@@H](C(F)(F)F)CCN2)c2nc[nH]c12 [Example 13a, 2-Thioxo-3-(2-((2R,4S)-4-(trifluoromethyl)piperidin-2-yl)benzyl)-1,2,3,7-tetrahydro-6H-purin-6-one]
38 | 2.3 nM | 430 nM | O=c1[nH]c(=S)n(Cc2ccccc2[C@@H]2C[C@H](C(F)(F)F)CCN2)c2nc[nH]c12 [Example 13b, 2-Thioxo-3-(2-((2S,4R)-4-(trifluoromethyl)piperidin-2-yl)benzyl)-1,2,3,7-tetrahydro-6H-purin-6-one]
